Results taken from patent US20040122013A1, “Analogs of nocicettin” (priority 2002, published 2004).
Read-outs that look alike come from different tables or passages of the source.

Key:
guinea pig ileum = test: Electrically induced twitch inhibition, guinea pig ileum (gpI)
mouse vas deferens = test: Electrically induced twitch inhibition, mouse vas deferens (mVD)
mice [1] = format: in vivo, mouse
mice [2] = test: Mouse tail withdrawal assay (pronociception); format: in vivo
[3] = target: T1, human recombinant NOP receptor (Homo sapiens, UniProt P41146); test: biochemical; conditions: CHOhNOP, stimulation of GTPγS binding
T1 construct: expressed in transfected cells; host or cells: Chinese hamster ovary (CHO) cells

[4] = target: T1, human recombinant NOP receptor; test: cell-based; conditions: CHOhNOP, cAMP inhibition
[5] = system: N/OFQ-sensitive isolated tissues; test: N/OFQ-sensitive electrically stimulated isolated tissues (mouse and rat vas deferens, guinea pig ileum)
Description: The compounds of the Table have been evaluated in vitro in several N/OFQ-sensitive isolated tissues from various species such as the rat, mouse and guinea pig and in Chinese hamster ovary cells expressing the human recombinant NOP receptor (CHOhNop). The conditions adopted for studying the effects of the compounds in the electrically stimulated tissues (mouse and rat vas deferens, guinea pig ileum) are described in Bigoni et al. (Naunyn Schmiedebergs Arch Pharmacol 359, 160-7, 1999, herein incorporated by reference), whereas the conditions adopted for investigating the effects in CHOhNop cells are disclosed in Okawa et al. (Br J Pharmacol 127, 123-130, 1999, herein incorporated by reference).

[6] = target: T2, recombinant human NOP receptors expressed in HEK293 cells (Homo sapiens, UniProt P41146); conditions: Okada et al. 2000; cited from earlier work
T2 construct: host or cells: HEK293 cells

NOP receptor = test: Antagonism of agonist effects by naloxone and [Nphe1]N/OFQ(1-13)NH2; conditions: tested vs the novel agonist compounds or vs N/OFQ
Description: In isolated tissues the compounds having structure [Phe^1Ψ(CO—NH)Gly^2] mimicked the effects of N/OFQ inducing similar maximal effects, thus acting as full agonists, while those with the structure [Phe^1Ψ(CH2—NH)Gly^2] behaved as partial agonists producing lower maximal effects than N/OFQ. […] Some of the compounds evaluated in vitro were also tested in a battery of in vivo assays of biological functions regulated by N/OFQ. In all the assays most of the analogs mimicked the effects evoked by the natural peptide. In the locomotor activity assay some compounds have been tested at 1 nmol i.c.v. dose. These mimicked the inhibitory effect of N/OFQ, however while the effects of the natural peptide lasted for about 20 min, those induced by some of the novel derivatives were still evident after several hours. […] Similar results were also obtained in the mouse tail withdrawal assay were the compounds mimicked the hyperalgesic actions of N/OFQ.

[7] = locomotor activity depression, i.c.v., mice

T1 sequence (P41146 whole entry): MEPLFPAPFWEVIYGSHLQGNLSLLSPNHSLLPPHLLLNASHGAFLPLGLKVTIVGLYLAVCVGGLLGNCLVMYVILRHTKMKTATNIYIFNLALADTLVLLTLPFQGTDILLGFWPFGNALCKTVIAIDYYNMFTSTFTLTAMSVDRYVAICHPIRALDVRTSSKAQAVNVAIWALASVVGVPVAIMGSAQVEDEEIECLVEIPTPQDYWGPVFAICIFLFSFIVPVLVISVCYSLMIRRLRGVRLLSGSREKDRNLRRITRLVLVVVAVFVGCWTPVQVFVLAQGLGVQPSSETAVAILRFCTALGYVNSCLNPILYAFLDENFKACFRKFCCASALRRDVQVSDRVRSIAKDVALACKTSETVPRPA
T2 sequence (P41146 whole entry): as above

| Molecule | Emax (guinea pig ileum) [%] | pEC50 (guinea pig ileum) | Emax (mouse vas deferens) [%] | pEC50 (mouse vas deferens) | Effective dose (mice [1]; [7]) [nmol] | Duration of action (mice [2]) [min] | Effective dose (mice [2]) [nmol] | other results |
| --- | --- | --- | --- | --- | --- | --- | --- | --- |
| CC(C)C[C@H](NC(=O)[C@H](CCCCN)NC(=O)[C@H](CCCNC(=N)N)NC(=O)[C@H](C)NC(=O)[C@H](CO)NC(=O)[C@H](CCCCN)NC(=O)[C@H](CCCNC(=N)N)NC(=O)[C@H](C)NC(=O)CNC(=O)[C@@H](NC(=O)[C@H](Cc1ccccc1)NC(=O)CNC(=O)CNC(=O)[C@@H](N)Cc1ccccc1)[C@@H](C)O)C(=O)N[C@@H](C)C(=O)N[C@@H](CC(N)=O)C(=O)N[C@@H](CCC(N)=O)C(=O)O [N/OFQ, reference compound] | 56 ± 5 | 8.04 | 91 ± 2 | 7.77 | 1 | 15 | 1 |  |
| C[C@H](NC(=O)CNC(=O)[C@@H](NC(=O)[C@H](Cc1ccc(F)cc1)NC(=O)CNC(=O)CNC(=O)[C@@H](N)Cc1ccccc1)[C@@H](C)O)C(=O)N[C@@H](CCCNC(=N)N)C(=O)N[C@@H](CCCCN)C(=O)N[C@@H](CO)C(=O)N[C@@H](C)C(=O)N[C@@H](CCCNC(=N)N)C(=O)N[C@@H](CCCCN)C(=O)N[C@@H](CCCNC(=N)N)C(=O)N[C@@H](CCCCN)C(=O)N[C@@H](CC(N)=O)C(=O)N[C@@H](CCC(N)=O)C(N)=O [UFP-102] | 55 ± 4 | 8.98 | 94 ± 1 | 9.36 | 0.1 | >120 | 0.1 | EC50 [3]: 0.0759 nM; Emax [3]: 12.26 ± 1.37; EC50 [4]: 0.0676 nM; Emax [4]: 104 ± 3%; Intrinsic activity (full or partial agonist) [5]: full agonist activity; Potency compared with N/OFQ [5]: higher than that of N/OFQ; Duration of action (mice [1]; [7]): >3 h; Potency relative to N/OFQ (mice [1]; mouse, in vivo): more than 10 fold |
| H-Phe-Ψ(CH2NH)-Gly-Gly-(pF)Phe-Thr-Gly-Ala-Arg-Lys-Ser-Ala-Arg-Lys-Arg-Lys-Asn-Gln-NH2 [b)] |  |  |  |  |  |  |  | Intrinsic activity (full or partial agonist) ([5]; isolated tissues, maximal effect compared with N/OFQ): partial agonist activity |
| [(pI)Phe^4]-N/OFQ-NH2 |  |  |  |  |  |  |  | Potency compared with N/OFQ ([5]; isolated tissues): lower |
| [Arg^14,Lys^15]N/OFQ |  |  |  |  |  |  |  | Potency relative to N/OFQ [6]: 17 fold |
| [Nphe^1]N/OFQ(1-13)NH2 |  |  |  |  |  |  |  | pA2 (NOP receptor): 6.0-6.4 |
